The values below come from publication PMC9604775, “Bioactive Peptides from Skipjack Tuna Cardiac Arterial Bulbs: Preparation, Identification, Antioxidant Activity, and Stability against Thermal, pH, and Simulated Gastrointestinal Digestion Treatments” (Marine Drugs, 2022).

Data set [1] can be described thus: Stability to simulated gastrointestinal digestion (DPPH· scavenging activity). The class given is in vitro ADME. The conditions noted are these: two-stage model: pepsin 120 min then trypsin 120 min; 0 to 240 min; peptide 2.0 mg/mL; read-out DPPH· scavenging activity. As for the experimental part:
The stability of TCP1 to TCP11 from tuna cardiac arterial bulbs was determined according to the previous method with a slight modification. The DPPH· scavenging activity (%) of TCP1 to TCP11 at 2.0 mg/mL were measured at the set conditions to evaluate their stability.
The thermostability of TCP1 to TCP11 at 20, 40, 60, 80, or 100 °C for 60 min was analyzed in water bath. The influences of pH values of 3, 5, 7, 9, or 11 were employed to estimate the acid and alkali stability properties of TCP1 to TCP11 at 25 °C, and the detecting time was set to 60, 120, and 180 min, respectively. The influence of simulate GI digestion on the stability of TCP1 to TCP11 was evaluated by the two-stage digestion model. In short, APs (TCP1 to TCP11) were separately treated with pepsin for 120 min and trypsin for 120 min.

A further data set deals with H2O2-damaged HepG2 cells. The class given is cell-based. The method, then:
The assay was carried out according to the method described by Hu et al., and the H2O2 concentration of 300 µM was applied to establish the oxidative damage model of HepG2 cells. Briefly, the HepG2 cells with density of 1 × 10^5 cells/well were incubated in a 96-well plate for 24 h. The supernatant in the 96-well plate was aspirated and 100 µL of peptide samples (50.0, 100.0, or 200.0 µM, respectively) were added into the protection groups respectively for incubating 8 h. After removing peptides, H2O2 with the final concentration of 300 µM was joined in the protection and model groups. After incubating for 24 h, the wells were rinsed twice with PBS and the MTT with the final concentration of 0.5 mg/mL was added into. After incubating for 4 h, the formazan crystals formed by active cells were soluble in 150 µL of DMSO and OD570 nm of the solution was determined. Finally, the cell viability was calculated using the equation: Cell viability = (ODsample/ODcontrol) × 100%(2)

Where [2] appears, read: peptide 200 μmol/L, 8 h pre-incubation, then 300 µM H2O2 for 24 h, MTT, model group 50.64 ± 2.43%, mean ± SD, n = 3.

Where two headings read alike, the source gives them in different places. Where a SMILES comes first, the peptide text is derived from it. Where no end group is shown, it is not given here.

Take GEQSN [TCP2, Gly-Glu-Gln-Ser-Asn]: the “Declined percentage of DPPH· scavenging activity after simulated GI digestion” value (“Declined percentage” for short) in data set [1] is recorded as 4.49%.

For GPGLM [TCP9, Gly-Pro-Gly-Leu-Met], in the data set with H2O2-damaged HepG2 cells (8 h, 200 μmol/L), the “viability of H2O2-damaged HepG2 cells” value is listed as 78.54 ± 3.06%.

Turning to YEGGD [TCP6, Tyr-Glu-Gly-Gly-Asp], the “viability of H2O2-damaged HepG2 cells” value in the data set on H2O2-damaged HepG2 cells (setting [2]) stood at 74.68 ± 1.69%.

With `NCCCC[C@H](NC(=O)[C@H](CCCCN)NC(=O)[C@@H]1CCCN1)C(=O)O` [TCP3, Pro-Lys-Lys] (H-Pro-Lys-Lys-OH), the “viability of H2O2-damaged HepG2 cells” value in the data set with H2O2-damaged HepG2 cells (8 h, 200 μmol/L) amounted to 81.26 ± 1.86%.

As for `CC(=O)N[C@@H](CS)C(=O)O` [N-Acetyl-L-Cysteine (NAC), N-Acetyl-L-Cysteine], in the data set with H2O2-damaged HepG2 cells (setting [2]), the “viability of H2O2-damaged HepG2 cells” value is recorded as 90.06 ± 3.16%.

For the molecule GEGQR [TCP8, Gly-Glu-Gly-Gln-Arg], the “Declined percentage” value in data set [1] was 4.21%.

Take GEEGD [TCP5, Gly-Glu-Glu-Gly-Asp]: in data set [1], the “Declined percentage” value is 4.25%.

For GDRGD [TCP11, Gly-Asp-Arg-Gly-Asp], the “Declined percentage” value in data set [1] was 2.65%.

Regarding `CC(C)C[C@H](NC(=O)CN)C(=O)N[C@@H](CC(N)=O)C(=O)O` [TCP10, Gly-Leu-Asn] (H-Gly-Leu-Asn-OH), the “Declined percentage” value in data set [1] is 3.15%.
